Measured values taken from ChEMBL document CHEMBL1201862, “PubChem BioAssay data set” (2004).
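1) Cells in 96-well plates. 2) Compound, 48 h, 5 concentrations. 3) Linear interpolation between surrounding doses. 4) Unreached endpoint = highest concentration. Here, GI50 denotes the concentration required for 50% inhibition of growth.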 The source made the active and inactive calls. Cut-off read from the data, not from the text of the source: active = GI50 up to about 1.1 µM and inactive = higher.

How the values were obtained:
Assay in all cases: inhibition of tumour cell growth, NCI panel, 48 h
Malme-3M = test system: Malme-3M
UACC-257 = test system: UACC-257
MCF7 = test system: MCF7
MOLT-4 = test system: MOLT-4
NCI-H226 = test system: NCI-H226
UO-31 = test system: UO-31
SNB-19 = test system: SNB-19
PC-3 = test system: PC-3
HOP-62 = test system: HOP-62
SR = test system: SR
786-0 = test system: 786-0
BT-549 = test system: BT-549
M14 = test system: M14
NCI-H522 = test system: NCI-H522
EKVX = test system: EKVX
SK-MEL-28 = test system: SK-MEL-28
OVCAR-8 = test system: OVCAR-8
NCI/ADR-RES = test system: NCI/ADR-RES
DU-145 = test system: DU-145
T47D = test system: T47D
ACHN = test system: ACHN
MDA-MB-435 = test system: MDA-MB-435
A549 = test system: A549
MDA-N = test system: MDA-N
OVCAR-4 = test system: OVCAR-4
Hs-578T = test system: Hs-578T
RXF 393 = test system: RXF 393
SN12C = test system: SN12C
OVCAR-5 = test system: OVCAR-5
HCT-116 = test system: HCT-116
KM12 = test system: KM12
CAKI-1 = test system: CAKI-1
A498 = test system: A498
HCC 2998 = test system: HCC 2998
HCT-15 = test system: HCT-15
COLO 205 = test system: COLO 205
OVCAR-3 = test system: OVCAR-3
NCI-H460 = test system: NCI-H460
LOX IMVI = test system: LOX IMVI
UACC-62 = test system: UACC-62
MDA-MB-231 = test system: MDA-MB-231
IGROV-1 = test system: IGROV-1
SF-539 = test system: SF-539
CCRF-CEM = test system: CCRF-CEM
HOP-92 = test system: HOP-92
SF-295 = test system: SF-295
SK-OV-3 = test system: SK-OV-3
HT-29 = test system: HT-29
K562 = test system: K562
TK-10 = test system: TK-10
SW-620 = test system: SW-620
NCI-H23 = test system: NCI-H23
SK-MEL-5 = test system: SK-MEL-5
RPMI-8226 = test system: RPMI-8226
SF-268 = test system: SF-268
SNB-75 = test system: SNB-75
U-251 = test system: U-251
HL-60 = test system: HL-60
SK-MEL-2 = test system: SK-MEL-2

With `Cc1ccc2c(O)cc(-c3ccsc3)nc2n1` the GI50 (Malme-3M) was 3.66 µM (inactive), the GI50 (UACC-257) was 16.5 µM (inactive) and the GI50 (MCF7) was 3.08 µM (inactive). The GI50 (MOLT-4) was 3.56 µM (inactive), the GI50 (NCI-H226) was 4.13 µM (inactive) and the GI50 (UO-31) was 2.32 µM (inactive). For the same compound, the GI50 (SNB-19) was 6.59 µM (inactive), the GI50 (PC-3) was 4.81 µM (inactive) and the GI50 (HOP-62) was 10.8 µM (inactive). For the same compound, the GI50 (SR) was 0.361 µM (active), the GI50 (786-0) was 4.58 µM (inactive) and the GI50 (BT-549) was 4.46 µM (inactive). For the same compound, the GI50 (M14) was 3.21 µM (inactive), the GI50 (NCI-H522) was 3.67 µM (inactive) and the GI50 (EKVX) was 16.9 µM (inactive). The GI50 (SK-MEL-28) was 7.23 µM (inactive), the GI50 (OVCAR-8) was 4.06 µM (inactive) and the GI50 (NCI/ADR-RES) was 2.29 µM (inactive). The GI50 (DU-145) was 9.79 µM (inactive), the GI50 (T47D) was 5.01 µM (inactive) and the GI50 (ACHN) was 6.98 µM (inactive). The GI50 (MDA-MB-435) was 0.597 µM (active), the GI50 (A549) was 5.24 µM (inactive) and the GI50 (MDA-N) was 0.454 µM (active). The GI50 (OVCAR-4) was > 29.9 µM (inactive), the GI50 (Hs-578T) was 3.82 µM (inactive) and the GI50 (RXF 393) was 7.53 µM (inactive). For the same compound, the GI50 (SN12C) was 5.83 µM (inactive), the GI50 (OVCAR-5) was 15.8 µM (inactive) and the GI50 (HCT-116) was 3.62 µM (inactive). For the same compound, the GI50 (KM12) was 4.33 µM (inactive), the GI50 (CAKI-1) was 6.95 µM (inactive) and the GI50 (A498) was 4.07 µM (inactive). The GI50 (HCC 2998) was 5.9 µM (inactive), the GI50 (HCT-15) was 1.68 µM and the GI50 (COLO 205) was 3.21 µM (inactive). For the same compound, the GI50 (OVCAR-3) was 6.46 µM (inactive), the GI50 (NCI-H460) was 4.01 µM (inactive) and the GI50 (LOX IMVI) was 3.62 µM (inactive). For the same compound, the GI50 (UACC-62) was 4.61 µM (inactive), the GI50 (MDA-MB-231) was 11.5 µM (inactive) and the GI50 (IGROV-1) was 4.74 µM (inactive). The GI50 (SF-539) was 5.93 µM (inactive), the GI50 (CCRF-CEM) was 6.18 µM (inactive) and the GI50 (HOP-92) was > 24.6 µM (inactive). The GI50 (SF-295) was 3.44 µM (inactive), the GI50 (SK-OV-3) was 10 µM (inactive) and the GI50 (HT-29) was 5.62 µM (inactive). The GI50 (K562) was 2.9 µM (inactive), the GI50 (TK-10) was 26.5 µM (inactive) and the GI50 (SW-620) was 1.75 µM (inactive). For the same compound, the GI50 (NCI-H23) was 2.77 µM (inactive), the GI50 (SK-MEL-5) was 2.71 µM (inactive) and the GI50 (RPMI-8226) was 2.2 µM (inactive). The GI50 (SF-268) was 14.4 µM (inactive), the GI50 (SNB-75) was 3.14 µM (inactive) and the GI50 (U-251) was 4.65 µM (inactive). For the same compound, the GI50 (HL-60) was 2.17 µM (inactive).
With `CC(=O)OC1C[C@@H](C)C2(C[C@H](O)c3ccoc3)C(=O)OC[C@]13C2CCC(O)C31CO1` (some centres undefined) the GI50 (Malme-3M) was > 100 µM (inactive), the GI50 (UACC-257) was > 100 µM (inactive) and the GI50 (MCF7) was > 100 µM (inactive). The GI50 (MOLT-4) was > 100 µM (inactive), the GI50 (NCI-H226) was > 100 µM (inactive) and the GI50 (UO-31) was > 100 µM (inactive). For the same compound, the GI50 (SNB-19) was > 100 µM (inactive), the GI50 (PC-3) was > 100 µM (inactive) and the GI50 (HOP-62) was > 100 µM (inactive). The GI50 (SR) was > 100 µM (inactive), the GI50 (786-0) was > 100 µM (inactive) and the GI50 (BT-549) was > 100 µM (inactive). For the same compound, the GI50 (M14) was > 100 µM (inactive), the GI50 (NCI-H522) was > 100 µM (inactive) and the GI50 (SK-MEL-28) was > 100 µM (inactive). The GI50 (SK-MEL-2) was > 100 µM (inactive), the GI50 (OVCAR-8) was > 100 µM (inactive) and the GI50 (NCI/ADR-RES) was > 100 µM (inactive). For the same compound, the GI50 (DU-145) was > 100 µM (inactive), the GI50 (T47D) was 1.51 µM (inactive) and the GI50 (ACHN) was > 100 µM (inactive). The GI50 (MDA-MB-435) was > 100 µM (inactive), the GI50 (A549) was > 100 µM (inactive) and the GI50 (MDA-N) was > 100 µM (inactive). The GI50 (OVCAR-4) was > 100 µM (inactive), the GI50 (Hs-578T) was > 100 µM (inactive) and the GI50 (RXF 393) was > 100 µM (inactive). The GI50 (SN12C) was > 100 µM (inactive), the GI50 (OVCAR-5) was > 100 µM (inactive) and the GI50 (HCT-116) was > 100 µM (inactive). For the same compound, the GI50 (KM12) was > 100 µM (inactive), the GI50 (CAKI-1) was > 100 µM (inactive) and the GI50 (A498) was > 100 µM (inactive). The GI50 (HCC 2998) was > 100 µM (inactive), the GI50 (HCT-15) was over 100 µM and the GI50 (COLO 205) was > 100 µM (inactive). For the same compound, the GI50 (OVCAR-3) was > 100 µM (inactive), the GI50 (NCI-H460) was > 100 µM (inactive) and the GI50 (LOX IMVI) was > 100 µM (inactive). The GI50 (UACC-62) was > 100 µM (inactive), the GI50 (MDA-MB-231) was > 100 µM (inactive) and the GI50 (IGROV-1) was > 100 µM (inactive). The GI50 (SF-539) was > 100 µM (inactive), the GI50 (CCRF-CEM) was > 100 µM (inactive) and the GI50 (HOP-92) was > 100 µM (inactive). The GI50 (SF-295) was > 100 µM (inactive), the GI50 (HT-29) was > 100 µM (inactive) and the GI50 (K562) was > 100 µM (inactive). For the same compound, the GI50 (TK-10) was > 100 µM (inactive), the GI50 (NCI-H23) was > 100 µM (inactive) and the GI50 (SK-MEL-5) was > 100 µM (inactive). For the same compound, the GI50 (RPMI-8226) was > 100 µM (inactive), the GI50 (SF-268) was > 100 µM (inactive) and the GI50 (SNB-75) was > 100 µM (inactive). For the same compound, the GI50 (U-251) was > 100 µM (inactive) and the GI50 (HL-60) was > 10 µM (inactive).
